Results published in US20050154046A1, “Methods of treating an inflammatory-related disease” (priority 2004, published 2005).
“Also recorded” adds a separate entry of the source.

Experiments:
IL-6 = IL-6 secretion (ELISA) in LPS-stimulated THP-1 cells; type: cell-based, human
Description: Standard IL-6 protein was used to establish a standard curve for the calculation of IL-6 in the medium secreted by the cells (LPS-stimulated or non-stimulated cells in the presence or absence of Meisoindigo).
1) Effects of Meisoindigo and NATURA on the expression/secretion of cytokines IL-1β, IL-6, IL-10: The human monocytic THP-1 cells grown exponentially were stimulated with or without 1 μM of lipopolysaccharide (LPS, Sigma), and exposed for 24 hours to different concentrations of Meisoindigo and NATURA (from 31.25 nM and 62.5 nM), respectively. Viability of cells was examined by trypan blue exception assay.

CDK2 = target: T1, CDK2 (Homo sapiens, UniProt P24941); assay: Cyclin dependent kinase activity in THP-1 cells (immunoprecipitation, histone H1 phosphorylation); type: cell-based; conditions: 24 h
T1 construct: endogenous in cells; host or cells: THP-1
Description: 2) Effects of Meisoindigo and/or NATURA on activity of cyclin dependent kinases (CDK) in THP-1 cells (99): THP-1 cells grown exponentially were exposed to […] of Meisoindigo or NATURA for 24 hr, respectively.
The cells were harvested, washed, and total proteins extracted as described previously (100). One hundred μg of the proteins were immuno-precipitated using antibodies against either cdk2, cdk4/6 or cyclin D1 overnight at 4° C. in the presence of a cocktail of protease inhibitors. The immuno-precipitates were washed 4 times with protein extraction buffer and once with kinase assay buffer, and reacted with […] histone H1 in the presence of [γ-^32P]-ATP (10 μCi/10 μM). The phosphorylated histone H1 (represent cdk activity) was measured by scintillation counting or by SDS-polyacrylaimde gel electrophoresis (101, 102).

IL-2 = IL-2 secretion in LPS-stimulated THP-1 cells; type: cell-based, human; conditions: cells could not be stimulated to secrete IL-2
TNF-α = TNF-α secretion (ELISA) in LPS-stimulated THP-1 cells; type: cell-based, human
Description: Methods: The cells were stimulated with or without […] of lipopolysaccharide (LPS, Sigma), and exposed for 24 hours to different concentrations of Meisoindigo (from 31.25 nM to 16,000 nM). Viability of cells was examined under microscope after trypan blue staining. Protein levels of IL-1β secreted into the culture media by the cells were then measured by ELISA and calculated from its standard curve using an assay Kit from R&D Systems according to instructions provided by the supplier. The method was established and validated by a good standard curve obtained. An example of the standard curve is shown in FIG. 2, panel A. The representative derivative Meisoindigo was used. The cell line and the procedure of ELISA to measure secretion of TNF-α were the same as described in Example 1, except the standard TNF-α protein was used to establish a standard curve for the calculation of the protein secreted in the medium by the cells (LPS-stimulated or non-stimulated cells in the presence or absence of Meisoindigo).

[1] = tested on: DSS-induced acute ulcerative colitis; assay: DSS-induced acute ulcerative colitis in Balb/c mice; type: in vivo; conditions: 7 days
Source text: Materials: […] A suspension of Meisoindigo was freshly prepared in 0.5% sodium methylcellulose and given orally for the animal tests described below. DSS (Dextran Sulfate Sodium salt, molecular weight: 36,000-44,000) was purchased from ICN Biomedicals. Other chemicals used in the following experiments were purchased from Sigma. Pathogen-free female Balb/c mice at 12 weeks of age with body weights from 22 to 25 grams were housed 5 per cage, and given, ad libitum, fresh tap water and commercial rodent pellets. Animal rooms were controlled at 24±2° C. with a relative humidity of 60±5% and a 12 hour light/dark cycle (07:00-19:00 hr). Induction of Acute Ulcerative Colitis DSS-induced colitis in Balb/c Mice: Colitis was induced by DSS in drinking water (MW 36,000-50,000, ICN biochemicals) as described previously (112). Briefly, the mice were randomly divided into 3 groups composed of 10 mice each. In the negative control group (Group 1), mice were given fresh tap water ad libitum and MF pellets, freshly changed twice a week, for 7 days. In the positive control group (DSS group, or Group 2), 5% DSS in tap water was given for 7 days to induce colitis, and the mice were fed with MF pellets. In the DSS-Meisoindigo group (test group or Group 3), mice were given 5% DSS drinking water and given Meisoindigo orally once a day at a dose of 50 mg/kg for 7 consecutive days. Fecal indications of colitis were recorded daily, including body weight and nature of feces (loose and/or bleeding or occult blood). Mice were then sacrificed. Colon tissues were taken, fixed in 10% formalin/PBS, and embedded in paraffin. To minimize physical artifacts, the removed colon was put onto a thick qualitative filter paper without stretching. The colon was then exposed inside out by cutting it longitudinally. The slides were stained with H&E and blindly examined histochemically by 3 technician/pathologists. All data was expressed as a mean±SD.

[2] = tested on: scale epithelial cells of mouse-tails; assay: Mouse-tail model: granular layer formation in scale epithelial cells; type: in vivo, Kunming mice; conditions: 13 days
Source text: Materials: Meisoindigo was synthesized, purified and its structure characterized by Natrogen Therapeutics, Inc. The purity of the compound was 98.5% as described in the Examples above. A suspension of Meisoindigo was freshly prepared in 0.5% sodium methylcellulose and given orally for the animal tests described below. Other chemicals used in the following experiments were purchased from Sigma.
Pathogen-free female Kunming mice at 12 weeks of age with body weights from 22 to 25 grams were housed 5 per cage, and given, ad libitum, fresh tap water and commercial rodent pellets. Animal rooms were controlled at 24±2° C. with a relative humidity of 60±5% and a 12 hour light/dark cycle (07:00-19:00 hr).
Effect of Meisoindigo on Epidermal Cell Differentiation in Mouse Tails: Sixty female Kunming mice were randomly divided into 5 groups, 20 in one control group, and 10 in 4 drug-tested groups. Meisoindigo was freshly prepared as a suspension in 0.5% of sodium methylcellulose. The drug was given orally at doses of 50, 100, and 200 mg/kg, respectively, once a day for 13 days. Methotrexate (MTX) was used as a positive control at a dose of 1 mg/kg, i.p. once every 2 days, for the same period of time. The same volume and vehicle for Meisoindigo suspension were used as a negative control. […] Slides were prepared for histological examination as originally described by Bosman et. al., (106). The slides were prepared by cutting the tails into longitudinal sections, and Hematoxylin and Eosin (H&E) stained. The slides were then examined with a light microscope to evaluate the degree of orthokeratosis (OK) and epidermal hyperplasia. The former was done by measuring the horizontal length of the fully developed granular layer stratum granulosum within an individual scale in relation to its total length. Drug activity was defined by the increase of the positive scale cells containing granular layer stratum granulosum between two folliculus pili.

IL-15 = IL-15 real time PCR in LPS-stimulated THP-1 cells; type: cell-based, human; conditions: data not shown
[3] = LPS-stimulated THP-1 cells, LPS alone 100.00
[4] = 50 mg/kg orally once a day, 5% DSS

CN1C(=O)/C(=C2/C(=O)Nc3ccccc32)c2ccccc21 [Meisoindigo]
reduction of IL-6 secretion (IL-6; 31.25 nM, LPS 1 μg/ml, THP-1 cells): Approximately 85% | IL-6 (Inhibition), Percentage of Maximal Response Without Cytotoxicity (IL-6; [3]): 83.51 ± 5.41% | effect on IL-6 production/secretion (IL-6; as low as 31.25 nM (31.25 and 62.5 nM in FIG. 6), 24 h): significantly inhibit | partial inhibition of CDK activity (CDK2; 1.5 μM, FIG. 6B): 23% | inhibition of CDK2 activity (CDK2; 31.25 and 62.50 nM): failed to inhibit; also recorded: no inhibitory effect | effect on IL-2 secretion (IL-2): no effects were observed | reduction of TNF-α secretion (TNF-α; 2.0 μM, 24 h): Approximately 50% | inhibition of TNF-α secretion (TNF-α; 16 μM): complete inhibition | effect on TNF-α secretion over the concentration series (TNF-α; 0.031 to 16 μM, 24 h): effectively inhibited; also recorded: concentration-dependent inhibition | TNF-α (Inhibition), Percentage of Maximal Response Without Cytotoxicity (TNF-α; [3]): 49.20 ± 3.37% | further reduction of TNF-α secretion on increasing the concentration (TNF-α; up to 8 μM): did not cause further reduction | reduction of the ulcerations versus positive control group ([1]; 50 mg/kg orally once a day): 55% | animals with occult blood [1, 4]: 40% | other symptoms such as loose stool [1, 4]: less severe than that of the control group | ulcerative damage of the colon (count under microscope) ([1]; 50 mg/kg orally, positive control 6.38±2.20): 2.89±1.46 | Granulous Scales (X ± SD) ([2]; 50.0 mg/kg orally once a day): 22.37 ± 6.20 | Granulous Scales (X ± SD) ([2]; 100.0 mg/kg orally once a day): 25.98 ± 4.12 | Granulous Scales (X ± SD) ([2]; 200.0 mg/kg orally once a day): 31.30 ± 7.92 | inhibition on IL-15 (real time PCR) (IL-15): moderate inhibition
